Bridges are numbered along the chain shown (N, C = ends). Where no end group is shown, it is not given here. [ ]: non-standard residue; d: D form. Orn = NCCC[C@H](N)C(=O)O
target: CRF receptors on anterior pituitary cells in culture; experiment: cell-based or functional assay; settings: not given

Molecule	ACTH secretion, anterior pituitary cell cultures, potency relative to r/hCRF [times r/hCRF]
[dY]DNPSLSIDLTFHLLRTLLELARTQSQRERAEQNRIIFDSV-NH2 [[D-Tyr0]hUcn(1-40)]	1.23
Ac-PSLSIDLT[dF]HLLRTLLELARTQSQREEA[dE]KNRIIFDSV-NH2 (lactam 27-30; SMILES CC[C@H](C)[C@H](NC(=O)[C@H](CO)NC(=O)[C@H](CC(C)C)NC(=O)[C@H](CO)NC(=O)[C@@H]1CCCN1C(C)=O)C(=O)N[C@@H](CC(=O)O)C(=O)N[C@@H](CC(C)C)C(=O)N[C@H](C(=O)N[C@H](Cc1ccccc1)C(=O)N[C@@H](Cc1c[nH]cn1)C(=O)N[C@@H](CC(C)C)C(=O)N[C@@H](CC(C)C)C(=O)N[C@@H](CCCNC(=N)N)C(=O)N[C@H](C(=O)N[C@@H](CC(C)C)C(=O)N[C@@H](CC(C)C)C(=O)N[C@@H](CCC(=O)O)C(=O)N[C@@H](CC(C)C)C(=O)N[C@@H](C)C(=O)N[C@@H](CCCNC(=N)N)C(=O)N[C@H](C(=O)N[C@@H](CCC(N)=O)C(=O)N[C@@H](CO)C(=O)N[C@@H](CCC(N)=O)C(=O)N[C@@H](CCCNC(=N)N)C(=O)N[C@@H](CCC(=O)O)C(=O)N[C@H]1CCC(=O)NCCCC[C@@H](C(=O)N[C@@H](CC(N)=O)C(=O)N[C@@H](CCCNC(=N)N)C(=O)N[C@H](C(=O)N[C@H](C(=O)N[C@@H](Cc2ccccc2)C(=O)N[C@@H](CC(=O)O)C(=O)N[C@@H](CO)C(=O)N[C@H](C(N)=O)C(C)C)[C@@H](C)CC)[C@@H](C)CC)NC(=O)[C@@H](CCC(=O)O)NC(=O)[C@H](C)NC1=O)[C@@H](C)O)[C@@H](C)O)[C@@H](C)O) [(cyclo 29-32) [Ac-Pro3,D-Phe11, Glu29, D-Glu31, Lys32]-hUcn(3-40)]	6.14

tested on: mammalian mean arterial blood pressure; experiment: in vivo test measuring elevation of mean arterial blood pressure as a result of iv injection; settings: result in words; indicative of a Ucn antagonist
Text: The peptide, Ucn(11-40), having the amino acid sequence (see SEQ ID NO: 8): […] is synthesized in the manner described in Example I. To evaluate the biological activity of a candidate peptide as a Ucn antagonist (which will be indicative of its effective binding to CRF receptors), the previously mentioned assay from Endocrinology, 91, supra, is run in the presence of a challenge dose of ovine CRF. […] An in vivo test measuring elevation of mean arterial blood pressure as a result of iv injection is also simply and straightforwardly performed.

Molecule	vasoconstrictive activity causing elevation of mean arterial blood pressure
H-[dF]HLLRTLLELARTQSQREEA[dR][Orn]NRIIFDSV-NH2	significant mammalian vasoconstrictive activity
H-[dY]HLLRTLLELARTQSQRERAEQNRIIFDSV-NH2 [[D-Tyr^11]-Ucn(11-40)]	significant mammalian vasoconstrictive activity
H-[dF]HLLRTLLELARTQSQREKAEENRIIFDSV-NH2	significant mammalian vasoconstrictive activity
H-[dF]HLLRTLLELARTQSQREKA[dE]ENRIIFDSV-NH2	significant mammalian vasoconstrictive activity
H-Phe-His-Leu-Leu-Arg-Thr-Leu-Leu-Glu-Leu-Ala-Arg-Thr-Gln-Ser-Gln-Arg-Glu-Arg-Ala-Glu-Gln-Asn-Arg-Ile-Ile-Phe-Asp-Ser-Val-NH2 (H-FHLLRTLLELARTQSQRERAEQNRIIFDSV-NH2) [Ucn(11-40)]	significant mammalian vasoconstrictive activity
H-[dY]HLLRTLLELARTQSQREEA[dE]KNRIIFDSV-NH2	significant mammalian vasoconstrictive activity
